Results on one molecule are retold here after paper PMC7825275 (Cancer chemotherapy and pharmacology, 2019).

Data set [1] is described as follows: Reported veliparib half-life. It counts as in vivo, human. As to conditions: for a 6.1 h half-life.
Data set [2] in a line: Veliparib plasma pharmacokinetics. It counts as in vivo, human.
In a further data set the test system is patients. The settings on record: out of 35 patients enrolled, with oral daily cyclophosphamide; cited from earlier work.
Setting [3] is: patients, oral veliparib 10-120 mg BID.

Each structure is given as a SMILES string.

One may read the half-life as the time in which the quantity being followed falls by half. Low values mean rapid decline, high ones slow decline.

For the molecule `C[C@]1(c2nc3c(C(N)=O)cccc3[nH]2)CCCN1` [veliparib], the “expected accumulation ratio by day 3 based on reported half-life” value in data set [1] is recorded as 1.34. Further, the “AUC on day 3 in the presence of carboplatin and paclitaxel (AUC0-12) vs day 1 veliparib alone (AUC0-inf)” value in data set [2] (P=0.049 by exact Wilcoxon) was “barely significantly lower than expected”. For the same molecule, the “Cmax in the absence vs presence of carboplatin and paclitaxel” value in data set [2] (day 1 vs day 3) is given as “similar”. Moreover, the “expected accumulation ratio by day 3 based on observed half-life” value in data set [2] (for a 5.1 h half-life, not observed for Cmax nor AUC) turned out to be 1.20. The molecule also had a half-life in data set [2] (human, plasma, po) of 306 min. Further, in data set [2] (setting [3]), the apparent clearance is 27.5 L/h and the exposure versus dose result is on record as “increase linearly with dose”. Also, the partial responses entry with patients is “seven”.
